From ChEMBL document CHEMBL4387728, “Synthetic glycopeptides reveal specific binding pattern and conformational change at O-mannosylated position of α-dystroglycan by POMGnT1 catalyzed GlcNAc modification” (Bioorg Med Chem, 2019)
Calls of active or inactive are those of the source. The rule behind the calls is not given here. Peptide text beside a SMILES is read from it. * marks the point of attachment. X2 = CC(=O)N[C@H]1[C@H](O[C@H]2[C@@H](O)[C@H](O)[C@@H](CO)O[C@@H]2*)O[C@H](CO)[C@@H](O[C@@H]2O[C@H](CO)[C@H](O)[C@H](O)[C@H]2O)[C@@H]1O; Hexanoyl(5-oxo) = CC(=O)CCCC(=O)*

Columns and labels:
[1] = system: Sambucus racemosa subsp. sieboldiana; experiment: Binding affinity to biotin-labeled Sambucus sieboldiana agglutinin in pH 7.4 Tris buffer by fluorescence microarray method
[2] = system: Maackia amurensis; experiment: Binding affinity to biotin-labeled Maackia amurensis agglutinin in pH 7.4 Tris buffer by fluorescence microarray method
[3] = biological target: Lactotransferrin (Homo sapiens) (UniProt P02788); experiment: Binding affinity to biotin-labeled lactoferrin (unknown origin) at 10 ug/ml in pH 7.4 Tris buffer by fluorescence microarray method
Lactotransferrin (Homo sapiens), sequence (P02788 whole entry): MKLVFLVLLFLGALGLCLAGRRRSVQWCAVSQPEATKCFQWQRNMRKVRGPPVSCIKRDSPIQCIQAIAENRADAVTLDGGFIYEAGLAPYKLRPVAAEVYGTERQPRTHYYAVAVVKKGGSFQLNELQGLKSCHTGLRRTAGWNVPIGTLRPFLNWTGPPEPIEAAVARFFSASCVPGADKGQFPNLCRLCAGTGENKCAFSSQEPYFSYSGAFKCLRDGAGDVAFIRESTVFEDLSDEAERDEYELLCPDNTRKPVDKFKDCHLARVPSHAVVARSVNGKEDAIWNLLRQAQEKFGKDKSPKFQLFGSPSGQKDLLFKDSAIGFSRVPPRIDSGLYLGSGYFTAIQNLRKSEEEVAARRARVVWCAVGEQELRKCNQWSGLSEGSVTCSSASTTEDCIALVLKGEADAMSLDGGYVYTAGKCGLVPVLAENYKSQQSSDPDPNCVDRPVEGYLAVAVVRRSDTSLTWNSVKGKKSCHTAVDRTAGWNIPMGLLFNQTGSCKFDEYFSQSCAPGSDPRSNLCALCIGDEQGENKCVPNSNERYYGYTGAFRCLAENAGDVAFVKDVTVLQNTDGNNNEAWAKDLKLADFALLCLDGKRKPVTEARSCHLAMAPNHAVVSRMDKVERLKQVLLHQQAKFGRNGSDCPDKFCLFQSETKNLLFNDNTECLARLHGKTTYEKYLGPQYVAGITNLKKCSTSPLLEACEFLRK

[4] = biological target: Lactotransferrin (Homo sapiens) (UniProt P02788); experiment: Binding affinity to biotin-labeled lactoferrin (unknown origin) at 10 ug/ml in pH 5.6 MES buffer by fluorescence microarray method
[5] = biological target: Laminin subunit alpha-1 (Homo sapiens) (UniProt P25391); experiment: Binding affinity to biotin-labeled human recombinant laminin-1 at 10 ug/ml in pH 5.6 MES buffer by fluorescence microarray method
Laminin subunit alpha-1 (Homo sapiens), sequence (P25391 whole entry): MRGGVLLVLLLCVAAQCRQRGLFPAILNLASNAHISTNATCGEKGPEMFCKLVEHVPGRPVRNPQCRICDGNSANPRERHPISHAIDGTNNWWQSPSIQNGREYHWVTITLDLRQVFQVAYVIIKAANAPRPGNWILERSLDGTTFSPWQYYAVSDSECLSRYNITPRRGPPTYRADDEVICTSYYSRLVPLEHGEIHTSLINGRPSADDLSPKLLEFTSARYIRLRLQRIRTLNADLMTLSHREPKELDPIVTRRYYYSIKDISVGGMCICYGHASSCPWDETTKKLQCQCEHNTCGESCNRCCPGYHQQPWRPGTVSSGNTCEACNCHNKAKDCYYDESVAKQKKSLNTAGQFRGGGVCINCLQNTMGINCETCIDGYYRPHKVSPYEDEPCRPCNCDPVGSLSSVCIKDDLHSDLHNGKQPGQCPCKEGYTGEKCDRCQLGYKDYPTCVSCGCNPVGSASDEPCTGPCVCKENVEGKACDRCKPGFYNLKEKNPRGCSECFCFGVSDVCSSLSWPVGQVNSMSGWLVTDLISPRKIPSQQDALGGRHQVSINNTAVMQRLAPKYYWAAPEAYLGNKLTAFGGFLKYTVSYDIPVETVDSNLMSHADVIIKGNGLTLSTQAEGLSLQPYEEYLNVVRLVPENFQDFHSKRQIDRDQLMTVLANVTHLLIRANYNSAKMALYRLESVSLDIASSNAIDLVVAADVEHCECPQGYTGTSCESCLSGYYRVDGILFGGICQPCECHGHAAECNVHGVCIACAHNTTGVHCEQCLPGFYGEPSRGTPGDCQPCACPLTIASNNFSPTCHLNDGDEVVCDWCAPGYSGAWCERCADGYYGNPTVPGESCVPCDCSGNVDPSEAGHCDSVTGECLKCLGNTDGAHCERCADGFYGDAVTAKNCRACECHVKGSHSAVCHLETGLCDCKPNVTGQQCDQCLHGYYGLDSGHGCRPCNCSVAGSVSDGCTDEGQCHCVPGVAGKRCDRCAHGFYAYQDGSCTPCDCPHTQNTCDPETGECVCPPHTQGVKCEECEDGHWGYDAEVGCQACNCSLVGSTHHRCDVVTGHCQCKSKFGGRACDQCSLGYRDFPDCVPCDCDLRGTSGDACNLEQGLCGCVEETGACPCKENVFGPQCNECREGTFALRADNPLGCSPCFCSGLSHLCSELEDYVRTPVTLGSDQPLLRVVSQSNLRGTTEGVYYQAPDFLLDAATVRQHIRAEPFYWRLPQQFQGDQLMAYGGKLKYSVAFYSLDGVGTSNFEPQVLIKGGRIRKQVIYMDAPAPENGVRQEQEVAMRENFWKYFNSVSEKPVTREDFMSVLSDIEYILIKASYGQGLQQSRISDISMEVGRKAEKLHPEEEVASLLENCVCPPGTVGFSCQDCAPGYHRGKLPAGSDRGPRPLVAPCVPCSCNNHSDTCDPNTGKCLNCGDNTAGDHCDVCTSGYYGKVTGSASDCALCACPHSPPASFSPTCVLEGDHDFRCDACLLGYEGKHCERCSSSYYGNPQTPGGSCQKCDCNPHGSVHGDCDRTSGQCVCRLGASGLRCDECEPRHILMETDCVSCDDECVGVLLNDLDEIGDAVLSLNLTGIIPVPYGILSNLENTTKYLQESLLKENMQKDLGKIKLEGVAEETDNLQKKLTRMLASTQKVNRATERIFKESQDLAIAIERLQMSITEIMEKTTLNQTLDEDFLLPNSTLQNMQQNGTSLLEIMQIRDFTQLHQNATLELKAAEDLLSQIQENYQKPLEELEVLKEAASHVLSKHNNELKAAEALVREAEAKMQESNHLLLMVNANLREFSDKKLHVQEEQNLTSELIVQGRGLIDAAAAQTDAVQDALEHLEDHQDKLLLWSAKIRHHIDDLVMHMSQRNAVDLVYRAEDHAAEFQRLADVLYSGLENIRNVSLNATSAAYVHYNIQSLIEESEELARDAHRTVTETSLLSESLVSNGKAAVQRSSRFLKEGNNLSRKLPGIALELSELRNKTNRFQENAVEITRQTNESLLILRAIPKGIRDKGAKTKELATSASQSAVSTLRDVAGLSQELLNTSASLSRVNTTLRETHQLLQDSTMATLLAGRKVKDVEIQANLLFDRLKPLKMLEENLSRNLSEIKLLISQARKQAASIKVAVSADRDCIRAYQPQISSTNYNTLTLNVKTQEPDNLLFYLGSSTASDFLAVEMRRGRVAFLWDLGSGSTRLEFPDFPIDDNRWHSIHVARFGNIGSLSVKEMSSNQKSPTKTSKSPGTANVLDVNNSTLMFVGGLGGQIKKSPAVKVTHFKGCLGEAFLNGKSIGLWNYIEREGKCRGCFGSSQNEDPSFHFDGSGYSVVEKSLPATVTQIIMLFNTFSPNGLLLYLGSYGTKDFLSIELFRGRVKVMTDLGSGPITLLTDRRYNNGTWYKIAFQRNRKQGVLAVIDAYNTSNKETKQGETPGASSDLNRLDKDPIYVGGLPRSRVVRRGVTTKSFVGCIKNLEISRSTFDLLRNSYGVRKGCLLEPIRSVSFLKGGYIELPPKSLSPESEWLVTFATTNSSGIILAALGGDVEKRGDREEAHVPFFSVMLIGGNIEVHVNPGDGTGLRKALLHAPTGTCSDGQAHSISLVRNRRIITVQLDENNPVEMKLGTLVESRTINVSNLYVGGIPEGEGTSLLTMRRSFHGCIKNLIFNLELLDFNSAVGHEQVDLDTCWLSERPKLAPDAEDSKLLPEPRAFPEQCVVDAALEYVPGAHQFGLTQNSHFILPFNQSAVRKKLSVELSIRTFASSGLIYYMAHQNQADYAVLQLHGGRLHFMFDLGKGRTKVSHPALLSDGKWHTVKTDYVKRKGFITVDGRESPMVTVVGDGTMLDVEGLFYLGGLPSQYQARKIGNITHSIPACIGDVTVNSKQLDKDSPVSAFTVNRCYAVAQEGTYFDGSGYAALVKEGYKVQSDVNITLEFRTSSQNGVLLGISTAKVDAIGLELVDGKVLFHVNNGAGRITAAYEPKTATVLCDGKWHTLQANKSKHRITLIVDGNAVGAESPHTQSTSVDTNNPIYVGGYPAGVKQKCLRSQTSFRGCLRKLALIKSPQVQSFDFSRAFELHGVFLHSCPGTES

[6] = Binding affinity to biotin-labeled Agaricus bisporus agglutinin in pH 7.4 Tris buffer by fluorescence microarray method
[7] = system: Erythrina crista-galli; experiment: Binding affinity to biotin-labeled Erythrina crista-galli agglutinin in pH 7.4 Tris buffer by fluorescence microarray method
[8] = species on record: Homo sapiens; experiment: Binding affinity to biotin-labeled human recombinant laminin-2 at 10 ug/ml in pH 7.4 Tris buffer by fluorescence microarray method
[9] = system: Triticum aestivum; experiment: Binding affinity to biotin-labeled Wheat germ agglutinin in pH 7.4 Tris buffer by fluorescence microarray method
[10] = species on record: Homo sapiens; experiment: Binding affinity to biotin-labeled human recombinant laminin-2 at 10 ug/ml in 5.6 MES buffer by fluorescence microarray method
[11] = system: Arachis hypogaea; experiment: Binding affinity to biotin-labeled Arachis hypogaea agglutinin in pH 7.4 Tris buffer by fluorescence microarray method
[12] = system: Datura stramonium; experiment: Binding affinity to biotin-labeled Datura stramonium agglutinin in pH 7.4 Tris buffer by fluorescence microarray method
[13] = system: Canavalia ensiformis; experiment: Binding affinity to biotin-labeled Canavalia ensiformis agglutinin in pH 7.4 Tris buffer by fluorescence microarray method
[14] = biological target: Laminin subunit alpha-1 (Homo sapiens) (UniProt P25391); experiment: Binding affinity to biotin-labeled human recombinant laminin-1 at 10 ug/ml in pH 7.4 Tris buffer by fluorescence microarray method

| Structure (SMILES) | Activity [1] | Activity [2] | Activity [3] | Activity [4] | Activity [5] | Activity [6] | Activity [7] | Activity [8] | Activity [9] | Activity [10] | Activity [11] | Activity [12] | Activity [13] | Activity [14] |
| --- | --- | --- | --- | --- | --- | --- | --- | --- | --- | --- | --- | --- | --- | --- |
| CC[C@H](C)[C@H](NC(=O)[C@H](C)NC(=O)CNC(=O)[C@H](CCCNC(=N)N)NC(=O)[C@@H](NC(=O)CCCC(C)=O)[C@@H](C)O)C(=O)N[C@H](C(=O)N[C@@H](CCC(N)=O)C(=O)N[C@H](C(=O)N1CCC[C@H]1C(=O)N[C@H](C(=O)N[C@@H](CC(C)C)C(=O)NCC(=O)N1CCC[C@H]1C(=O)N[C@H](C(=O)N[C@@H](CCC(N)=O)C(=O)N1CCC[C@H]1C(=O)N[C@H](C(=O)N[C@@H](CCCNC(=N)N)C(=O)N[C@H](C(N)=O)C(C)C)[C@@H](C)O[C@H]1O[C@H](CO)[C@@H](O)[C@H](O)[C@@H]1O[C@@H]1O[C@H](CO)[C@@H](O[C@@H]2O[C@H](CO)[C@H](O)[C@H](O[C@]3(C(=O)O)C[C@H](O)[C@@H](NC(C)=O)[C@H]([C@H](O)[C@H](O)CO)O3)[C@H]2O)[C@H](O)[C@H]1NC(C)=O)[C@@H](C)CC)[C@@H](C)O[C@H]1O[C@H](CO)[C@@H](O)[C@H](O)[C@@H]1O[C@@H]1O[C@H](CO)[C@@H](O[C@@H]2O[C@H](CO)[C@H](O)[C@H](O[C@]3(C(=O)O)C[C@H](O)[C@@H](NC(C)=O)[C@H]([C@H](O)[C@H](O)CO)O3)[C@H]2O)[C@H](O)[C@H]1NC(C)=O)[C@@H](C)O[C@H]1O[C@H](CO)[C@@H](O)[C@H](O)[C@@H]1O[C@@H]1O[C@H](CO)[C@@H](O[C@@H]2O[C@H](CO)[C@H](O)[C@H](O[C@]3(C(=O)O)C[C@H](O)[C@@H](NC(C)=O)[C@H]([C@H](O)[C@H](O)CO)O3)[C@H]2O)[C@H](O)[C@H]1NC(C)=O)[C@@H](C)CC | Active | inactive | inactive | Active | Active | Active | Active | inactive | Active | Active | Active | inactive | Active | Active |
| CC[C@H](C)[C@H](NC(=O)[C@H](C)NC(=O)CNC(=O)[C@H](CCCNC(=N)N)NC(=O)[C@@H](NC(=O)CCCC(C)=O)[C@@H](C)O)C(=O)N[C@H](C(=O)N[C@@H](CCC(N)=O)C(=O)N[C@H](C(=O)N1CCC[C@H]1C(=O)N[C@H](C(=O)N[C@@H](CC(C)C)C(=O)NCC(=O)N1CCC[C@H]1C(=O)N[C@H](C(=O)N[C@@H](CCC(N)=O)C(=O)N1CCC[C@H]1C(=O)N[C@H](C(=O)N[C@@H](CCCNC(=N)N)C(=O)N[C@H](C(N)=O)C(C)C)[C@@H](C)O)[C@@H](C)CC)[C@@H](C)O[C@H]1O[C@H](CO)[C@@H](O)[C@H](O)[C@@H]1O[C@@H]1O[C@H](CO)[C@@H](O[C@@H]2O[C@H](CO)[C@H](O)[C@H](O)[C@H]2O)[C@H](O)[C@H]1NC(C)=O)[C@@H](C)O)[C@@H](C)CC ({Hexanoyl(5-oxo)}-TRGAIIQTPT(X2)LGPIQPTRV-NH2) | Active | inactive | inactive | Active | Active | Active | Active | inactive | Active | Active | Active | inactive | Active | Active |
